Consider 14 compounds from patent US9687429B2, “Antimicrobial compositions containing low concentrations of botanicals” (THE TRUSTEES OF COLUMBIA UNIVERSITY IN THE CITY OF NEW YORK, priority 2007, dated 2017).

Structures are written as SMILES.

Experiment [1] concerns S. aureus. Put plainly: Five-minute kill test of solutions in 10% SDA40-B alcohol and water, colony counts. The class given is cell-based. The note with it: control counts 1 × 10^6 to 5 × 10^6. Here is the method: Various concentrations of basil oil and acetic, lactic, and citric acids, separately and in combination, were prepared in 10 percent SDA40-B alcohol and water, and adjusted to 100 percent. Except for citric acid, which was added by weight, all other ingredients were measured by volume. 0.9 ml of each solution were dispensed in sterile culture tubes, in triplicate, and 0.1 ml of a 10^7 cfu/ml S. aureus culture was added to the tubes, vortexed, and then, five minutes later, 9.0 ml of drug inactivating medium was added to each tube. Serial dilutions were made with the drug inactivating medium. 0.5 ml of the dilutions were plated on trypticase soy agar (“TSA”) plates. As a control, water containing 10 percent SDA40-B alcohol was processed in parallel. The plates were incubated at 37° C. for 24-48 hours and then the colony counts were determined.
The same methodology was used to test the antimicrobial activity of combinations of citric acid with other essential oils.
Various concentrations of cinnamon leaf oil and citric acid were dissolved in SDA 40-B alcohol (10%) and water, and adjusted to 100 percent. Except for citric acid, which was added by weight, all other ingredients were measured by volume. 0.9 ml of each solution were dispensed in sterile culture tubes, in triplicate, and 0.1 ml of 10^7 cfu/ml of S. aureus culture was added to the tubes, vortexed, and then, five minutes later, 9.0 ml of drug inactivating medium was added to each tube. Serial dilutions were made with the drug inactivating medium. 0.5 ml of the dilutions were plated on trypticase soy agar (“TSA”) plates. As a control, water containing 10% percent SDA40-B alcohol was processed in parallel. The plates were incubated at 37° C. for 24-48 hours and then the colony counts were determined.
The following experiments were performed to evaluate the antibacterial activity of LG and Citric acid dissolved in alcohol, where the test organism used was S. aureus. Various amounts of LG oil and Citric acid were dissolved in SDA40-B alcohol, and then water was added to result in the EO concentration shown and an alcohol concentration of 10 percent. 0.9 ml of each solution were dispensed in sterile culture tubes, in triplicate, and 0.1 ml of a 10^7 cfu/ml S. aureus culture was added to the tubes, vortexed, and then, five minutes later, 9.0 ml of drug inactivating medium was added to each tube. Serial dilutions were made with drug inactivating medium. 0.5 ml of the dilutions were plated on trypticase soy agar (“TSA”) plates. As a control, water containing 10 percent SDA40-B alcohol was processed in parallel. The plates were incubated at 37° C. for 24-48 hours and then the colony counts were determined.

In experiment [2] the test system is S. aureus. Put plainly: Synergistic activity of essential oils and plant extracts with citric acid, log10 reduction from control bacterial counts. The class given is cell-based. The following applies: Table 202, compounds in %, control counts 1×10^7 to 5×10^7.
Text: Log10 reduction from control bacterial counts that range from 1×10^7 to 5×10^7.
Experiment [3] relates to S. aureus. The experiment in a line: Soap rapid kill test (30 second kill) in presence of bovine serum. The class given is cell-based.
Experimental: The antimicrobial activity of the above soap was tested in parallel with commercial Softsoap® containing triclosan (Softsoap® Antibacterial; Colgate-Palmolive). 0.1 ml of a 10^8 cfu/ml culture of each microbe tested was mixed with 0.1 ml of bovine serum and placed in a sterile culture tube. 0.8 ml of the test soap formulation was added to the tube and vortexed for 30 seconds. Then 9.0 ml DNB was added to neutralize the activity of the soap. The tube was then vortexed and serially diluted with DNB. 0.5 ml of the diluted solution was plated on TSA plates. The same soap base lacking cinnamon oil, citric acid, and orange oil, with phosphate buffered saline mixed with the culture, were used as the controls.
The antimicrobial activity of the above soap was tested in parallel with commercial Dial® Antibacterial Hand Soap) containing triclosan. 0.1 ml of a 10^8 cfu/ml culture of each microbe tested was mixed with 0.1 ml of bovine serum and placed in a sterile culture tube. 0.8 ml of the test soap formulation was added to the tube and vortexed for 30 seconds. Then 9.0 ml DNB was added to neutralize the activity of the soap. The tube was then vortexed and serially diluted with DNB. 0.5 ml of the diluted solution was plated on TSA plates. The same soap base lacking cinnamon oil, citric acid, and orange oil, with phosphate buffered saline mixed with the culture, were used as the controls.
The following method was used. A mixture of 0.1 ml of 10^7 cfu/ml of S. aureus culture and 0.1 ml of bovine serum were placed in a sterile culture tube. 0.8 ml of the test soap formulation was added to the tube and vortexed for 30 seconds. 9.0 ml DFN was added to the tube to neutralize the activity of the soap; this tube was then vortexed and serially diluted with DFN. 0.5 ml of the diluted solution was plated on trypticase soy agar plates, incubated at 37° C. for 24-48 hours and the colony counts were determined. Soft Soap® and Dial® soaps containing 0.15% triclosan was also tested similarly at the same time. The soap base without essential oils and Citric acid containing the culture were used as controls.
The following method was used. A mixture of 0.1 ml of 10^7 cfu/ml of S. aureus culture and 0.1 ml of bovine serum were placed in a sterile culture tube. 0.8 ml of the test soap formulation was added to the tube and vortexed for 30 seconds. 9.0 ml DFN was added to the tube to neutralize the activity of the soap; this tube was then vortexed and serially diluted with DFN. 0.5 ml of the diluted solution was plated on trypticase soy agar plates, incubated at 37° C. for 24-48 hrs and the colony counts were determined. Soft Soap® and Dial® soaps containing 0.15% triclosan was also tested similarly at the same time. The soap base without essential oils and citric acid containing the culture were used as controls.
The following method was used. A mixture of 0.1 ml of 10^8 cfu/ml of S. aureus culture and 0.1 ml of bovine serum were placed in a sterile culture tube. 0.8 ml of the test soap formulation was added to the tube and vortexed for 30 seconds. 9.0 ml DFN was added to the tube to neutralize the activity of the soap; this tube was then vortexed and serially diluted with DFN. 0.5 ml of the diluted solution was plated on trypticase soy agar plates, incubated at 37° C. for 24-48 hours and the colony counts were determined.
A mixture of 0.1 ml of 10^7 cfu/ml of S. aureus culture and 0.1 ml of bovine serum were placed in a sterile culture tube. 0.8 ml of the test soap formulation was added to the tube and vortexed for 30 seconds. 9.0 ml DFN was added to the tube to neutralize the activity of the soap; this tube was then vortexed and serially diluted with DFN.
Experiment [4] concerns S. aureus. The following applies: erythromycin, gentamicin, vancomycin, ciproflaxin, clindamycin, tetracycline; cited from earlier work.

As to `CC(C)=CCCC(C)=CCCC(C)=CCO` [0.25% Farnesol], the “Log10 Reduction from control bacterial counts” value with S. aureus [1] (Table 106, five minutes) stood at 0 Log10.

As for `O=C(O)CC(O)(CC(=O)O)C(=O)O` [1 Citric acid], the “Log10 Reduction from control bacterial counts” value in the experiment on S. aureus [2] was 0.7 Log10.

With `CC(=O)O` [1% Acetic acid (AA)], the “Log10 Reduction from control bacterial counts” value in the experiment on S. aureus [1] (Table 105, five minutes) is 0.2 Log10.

Turning to `O=C(O)CC(O)(CC(=O)O)C(=O)O` [1% Citric Acid (CA)], the “Log10 Reduction from control bacterial counts” value in the experiment with S. aureus [1] (Table 105, five minutes) turned out to be 0.1 Log10.

For `CC(O)C(=O)O` (centres unmarked) [1% Lactic acid (LA)], the “Log10 Reduction from control bacterial counts” value with S. aureus [1] (Table 105, five minutes) is reported as 2.3 Log10.

Consider `CCCCCCCCC(O)CO` (centres unmarked) [1,2 decanediol (0.3%)], for which the “Log10 reduction from control” value in the experiment on S. aureus [3] (Table 150, 30 seconds, bovine serum, alkanediols 0.3%, control 2 × 10^8-5 × 10^8) is listed as 0.6 Log10.

In the case of `CCCCCCCCC(O)CO` (centres unmarked) [1,2 decanediol(0.5%)], the “Log10 reduction from control” value with S. aureus [3] (Table 151, 30 second Kill, alkanediols 0.5%, soaps pH 4.5-4.6, control 2 × 10^8-5 × 10^8) came out at 1.4 Log10.

In the case of `CC(C)=CCC/C(C)=C/CC1CCCC1=O` (centres unmarked) [apritone], in the experiment with S. aureus [4], the “effect on susceptibility of S. aureus to antibiotics (in words)” value (“effect on susceptibility of S. aureus” for short) is on record as “enhanced the susceptibility of S. aureus”.

Turning to `CC(C)=CCC[C@](C)(O)C1CC=C(C)CC1` (some centres unmarked) [bisabolol], the “effect on susceptibility of S. aureus” value with S. aureus [4] was “enhanced the susceptibility of S. aureus”.

Regarding `O=C(O)CC(O)(CC(=O)O)C(=O)O` [citric acid], the “antibacterial activity of soap, 30 second kill (in words)” value (shortened to “antibacterial activity of soap”) with S. aureus [3] (bovine serum) is given as “enhance the activity of soaps containing triclosan”.

`CCCCCCCCC(O)CO` (centres unmarked) [decanediol, 1,2 decanediol]: the “antibacterial activity of soap” value in the experiment on S. aureus [3] (bovine serum) is “enhances the activity of Dial®-T Soap+LG-O-Cit 4”.

In the case of `C=CCc1ccc(O)c(OC)c1` [eugenol], the “antibacterial activity of soap” value in the experiment on S. aureus [3] (bovine serum) is reported as “improved the antimicrobial effect”.

`CC(C)=CCCC(C)=CCCC(C)=CCO` [farnesol]: in the experiment on S. aureus [4], the “effect on susceptibility of S. aureus” value is recorded as “enhanced the susceptibility of S. aureus”.

In the case of `C=CC(C)(O)CCC=C(C)CCC=C(C)C` (centres unmarked) [nerolidol], the “effect on susceptibility of S. aureus” value with S. aureus [4] is “enhanced the susceptibility of S. aureus”.
